The values below come from EP0816361A2, “Preparation of substituted alkenoic acids” (ELI LILLY AND COMPANY, priority 1996, dated 1998).

This series has as its system TXA2 agonist activity. The experiment in a line: Absence of Agonist Activity (pressor response in pithed rats). The series is classed as in vivo.

SMILES strings stand for the structures.

As to `O=C(O)CCCC/C=C(\c1ccc(-c2nc(C(=O)NCCCCC3CCCCC3)co2)cc1)c1cccnc1` [Example 2, (E)-7-[4-[4-[[(4-Cyclohexylbutyl)amino]carbonyl]-2-oxazolyl]phenyl]-7-(3-pyridyl)hept-6-enoic Acid], under “i.v. administration, doses up to 10 mg/kg”, the pressor response result is reported as “absence of a pressor response”.

On to `O=C(O)CCC/C=C\C[C@H]1[C@@H]2CC[C@@H](C2)[C@@H]1NS(=O)(=O)c1ccccc1` [Example S-145], for which, where the note is “one minute after dosing at 0.1 mg/kg i.v.”, the mean arterial pressure result is on record as “transient, but significant, increase”.
